Reference: article PMC11035696, “Prospective de novo drug design with deep interactome learning” (Nature Communications, 2024)
Several values for one entry are separate records, joined by “and”; a condition that tells them apart may be missing. Equal values may be shown once.

How the values were obtained:
[1] = Protein binding, unbound free fraction; format: in vitro ADME; details: human, plasma
Description: (§1) Compounds 1–3 were characterized in a hybrid reporter gene assay for their agoniztic effect on human nuclear receptors PPARα/γ/δ, RXRα, FXRα, RARα in HEK293T cells. Compound 1 was tested in an isothermal titration calorimetry (ITC) assay to measure direct binding affinity to the ligand-binding domain of PPARγ. ADME properties were measured in standardized assays at Roche.
(§2) SI11Absorption Distribution Metabolism and Excretion and Toxicity Data
(§3) To assess the drug-like characteristics of the newly designed PPAR modulators, a series of tests were conducted covering various aspects of absorption, distribution, metabolism, and excretion (ADME) properties. Specifically, these assessments included the parallel artificial membrane permeability assay (PAMPA) with permeation co- […]
efficients ([…]), LogD measurements, microsomal clearance, hepatocyte clearance, P-glycoprotein (Pgp) efflux ratio and binding and the unbound free fraction. […]
Table S14: Absorption distribution metabolism and excretion (ADME) properties of compounds 1 and 2. The […]
values for […], LogD, protein binding, P-glycoprotein (Pgp) efflux ratio and permeability, and hepato-cyte clearance are presented as the mean and standard deviation, with a sample size of N = 3, i.e., 3 technical replicates each. The values for microsomal clearance and CYP-inhibition represent single point measurements. […]

CYP2C8 = CYP2C8 (Homo sapiens, UniProt P10632); assay: CYP inhibition dose-response; format: in vitro ADME; details: substrate AMODIAQUINE
Description: as §2, §3
(§4) efficients ([…]), LogD measurements, microsomal clearance, hepatocyte clearance, P-glycoprotein (Pgp) efflux ratio and binding and the unbound free fraction. Furthermore, the evaluation of inhibition po-tential against cytochrome P450 isoenzymes (CYP) proteins was investigated. For seven selected CYP proteins (i.e., Cyp3A4, Cyp1A2, Cyp2B6, Cyp2C9, Cyp2D6, Cyp2C19, and Cyp2C8) the half maximal inhibitory con-centration (IC50) was determined. (Table S15). […]
(§5) activity in the CYP assays was found.
(§6) Table S14: Absorption distribution metabolism and excretion (ADME) properties of compounds 1 and 2. […]
(§7) The values for microsomal clearance and CYP-inhibition represent single point measurements. […]
(§8) Molecule Enzyme Substrate IC50 (µM)

CYP2C9 = CYP2C9 (Homo sapiens, UniProt P11712); assay: CYP inhibition dose-response; format: in vitro ADME; details: substrate DICLOFENAC
Description: as §2, §3, §4, §5, §6, §7, §8

CYP3A4 = CYP3A4 (Homo sapiens, UniProt P08684); assay: CYP inhibition dose-response; format: in vitro ADME; details: substrate MIDAZOLAM
Description: as §2, §3, §4, §5, §6, §7, §8

CYP2D6 = CYP2D6 (Homo sapiens, UniProt P10635); assay: CYP inhibition dose-response; format: in vitro ADME; details: substrate DEXTROMETHORPHAN
Description: as §2, §3, §4, §5, §6, §7, §8

[2] = target: T1, retinoic acid receptor (RAR)α (Homo sapiens, UniProt P10276); assay: Nuclear receptor selectivity profiling, hybrid reporter gene assay, RARα; format: cell-based
T1 construct: RARα (pFA-CMV-hRARα-LBD[104], 1 μM tretinoin); expressed in transfected cells; host or cells: HEK293T
T1 sequence (P10276 183-417 limits assumed): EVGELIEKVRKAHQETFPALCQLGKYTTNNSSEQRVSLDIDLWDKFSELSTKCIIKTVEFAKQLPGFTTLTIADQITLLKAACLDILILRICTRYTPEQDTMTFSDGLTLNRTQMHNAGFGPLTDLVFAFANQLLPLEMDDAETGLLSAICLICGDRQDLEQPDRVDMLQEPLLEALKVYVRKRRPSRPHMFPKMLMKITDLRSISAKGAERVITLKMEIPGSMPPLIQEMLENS
Description: as §1
PPAR activation was determined in uniform Gal4-hybrid reporter gene assays for the PPARα, PPARγ and PPARδ isoforms in HEK293T cells (German Collection of Microorganisms and Cell Culture GmbH, DSMZ) which were transiently transfected with pFR-Luc (Stratagene, La Jolla, CA, USA; reporter) and pRL-SV40 (Promega, Madison, WI, USA; internal control) and one pFA-CMV-hPPAR-LBD[97] clone, coding for the hinge region and ligand binding domain of the canonical isoform of human PPARα, PPARγ, PPARδ or respectively. Cells were cultured in Dulbecco’s modified Eagle’s medium (DMEM), high glucose supplemented with 10% fetal calf serum (FCS), sodium pyruvate (1 mM), penicillin (100 U ⋅ ml^-1), and streptomycin (100 μg ⋅ ml^-1) at 37 °C and 5% CO2 and seeded in 96-well plates (3 × 10^4 cells per well). After 24 h, medium was changed to Opti-MEM without supplements and cells were transiently transfected using Lipofectamine LTX reagent (Invitrogen) according to the manufacturer’s protocol. Five hours after transfection, cells were incubated with the test compounds in Opti-MEM supplemented with penicillin (100 U ⋅ ml^-1), streptomycin (100 μg ⋅ ml^-1) and 0.1% DMSO for 16 h before luciferase activity was measured using the Dual-Glo Luciferase Assay System (Promega) according to the manufacturer’s protocol on a Tecan Spark luminometer (Tecan Deutschland GmbH, Germany). Firefly luminescence was divided by Renilla luminescence and multiplied by 1000 resulting in relative light units (RLU) to normalize for transfection efficiency and cell growth. Fold activation was obtained by dividing the mean RLU of a test compound by the mean RLU of the untreated control. All samples were tested in at least three biologically independent experiments in duplicates. For dose-response curve fitting and calculation of EC50 values, the equation “[Agonist] versus response (variable slope—four parameters)” was used in GraphPad Prism (version 7.00, GraphPad Software, La Jolla, CA, USA) with fold activation data. The reference agonizts GW7647 (PPARα)[98],[99], pioglitazone (PPARγ)[100],[101] and L165,041 (PPARδ)[102],[103] were used to validate the assays and to monitor assay performance. Nuclear receptor selectivity profiling was performed with corresponding pFA-CMV-hNR-LBD clones and suitable reference agonizts on RARα (pFA-CMV-hRARα-LBD[104], 1 μM tretinoin), LXRα (pFA-CMV-hLXRα-LBD[104], 1 μM TO901317) and RXRα (pFA-CMV-h RXRα-LBD[105], 1 μM Bexarotene).

XANTHINE OXIDASE = XANTHINE OXIDASE (Bos taurus, UniProt P80457); assay: Safety off-target panel, enzymatic; format: biochemical, Bovine; details: single point
Description: (§9) Table S9-S12 list all targets, their species, inhibition (%) and assay type for the experiments conducted in the
(§10) off-targets. […] The numbers for mean
(§11) inhibition (%) represent single point measurements.
(§12) off-targets. […] The numbers for
(§13) mean inhibition (%) represent single point measurements.

[3] = system: NICOTINIC RECEPTOR, NEURONAL (α-BGTX insens.); assay: Safety off-target panel, binding; design: species or system Human; details: 10 µM, single point
Description: as §9, §10, §11, §12, §13

Chain of CYP2C8 (P10632 whole entry): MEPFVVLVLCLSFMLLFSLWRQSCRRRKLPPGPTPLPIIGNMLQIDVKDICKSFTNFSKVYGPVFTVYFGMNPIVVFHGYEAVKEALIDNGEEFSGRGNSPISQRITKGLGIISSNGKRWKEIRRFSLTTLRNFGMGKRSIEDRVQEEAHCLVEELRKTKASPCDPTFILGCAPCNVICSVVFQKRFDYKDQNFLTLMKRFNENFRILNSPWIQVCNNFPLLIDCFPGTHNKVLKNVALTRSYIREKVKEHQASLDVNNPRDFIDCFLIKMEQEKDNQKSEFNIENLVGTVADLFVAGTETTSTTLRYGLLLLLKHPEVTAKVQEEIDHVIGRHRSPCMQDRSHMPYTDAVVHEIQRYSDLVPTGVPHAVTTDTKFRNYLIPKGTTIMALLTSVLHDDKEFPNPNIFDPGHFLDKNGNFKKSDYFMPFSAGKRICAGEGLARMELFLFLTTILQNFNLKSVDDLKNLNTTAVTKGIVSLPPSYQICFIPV
Chain of CYP3A4 (P08684 whole entry): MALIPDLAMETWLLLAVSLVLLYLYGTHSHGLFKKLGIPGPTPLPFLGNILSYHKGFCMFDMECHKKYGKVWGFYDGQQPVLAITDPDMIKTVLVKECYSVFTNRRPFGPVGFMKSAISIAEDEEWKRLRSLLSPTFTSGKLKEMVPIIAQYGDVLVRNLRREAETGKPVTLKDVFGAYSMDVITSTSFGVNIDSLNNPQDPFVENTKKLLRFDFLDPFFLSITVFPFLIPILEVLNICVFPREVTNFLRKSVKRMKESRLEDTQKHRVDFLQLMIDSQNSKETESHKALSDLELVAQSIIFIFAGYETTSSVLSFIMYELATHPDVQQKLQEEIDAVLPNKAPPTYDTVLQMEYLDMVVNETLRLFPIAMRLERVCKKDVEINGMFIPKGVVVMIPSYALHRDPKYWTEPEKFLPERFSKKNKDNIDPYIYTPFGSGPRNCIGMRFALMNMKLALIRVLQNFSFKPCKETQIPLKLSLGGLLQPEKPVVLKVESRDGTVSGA
Chain of CYP2C9 (P11712 whole entry): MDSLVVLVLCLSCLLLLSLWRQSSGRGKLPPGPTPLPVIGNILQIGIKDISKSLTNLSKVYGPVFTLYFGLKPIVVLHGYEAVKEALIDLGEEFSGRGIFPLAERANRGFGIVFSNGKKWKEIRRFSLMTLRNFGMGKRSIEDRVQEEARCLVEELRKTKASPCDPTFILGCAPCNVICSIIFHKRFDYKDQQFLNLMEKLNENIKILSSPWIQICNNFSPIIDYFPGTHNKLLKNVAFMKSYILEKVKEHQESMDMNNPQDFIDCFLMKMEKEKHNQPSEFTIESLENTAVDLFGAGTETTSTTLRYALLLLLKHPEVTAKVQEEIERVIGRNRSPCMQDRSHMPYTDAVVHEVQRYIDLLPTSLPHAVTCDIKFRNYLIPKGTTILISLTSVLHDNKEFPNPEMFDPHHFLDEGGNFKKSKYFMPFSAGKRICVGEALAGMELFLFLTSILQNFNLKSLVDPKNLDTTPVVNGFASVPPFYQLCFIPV
Chain of XANTHINE OXIDASE (P80457 whole entry): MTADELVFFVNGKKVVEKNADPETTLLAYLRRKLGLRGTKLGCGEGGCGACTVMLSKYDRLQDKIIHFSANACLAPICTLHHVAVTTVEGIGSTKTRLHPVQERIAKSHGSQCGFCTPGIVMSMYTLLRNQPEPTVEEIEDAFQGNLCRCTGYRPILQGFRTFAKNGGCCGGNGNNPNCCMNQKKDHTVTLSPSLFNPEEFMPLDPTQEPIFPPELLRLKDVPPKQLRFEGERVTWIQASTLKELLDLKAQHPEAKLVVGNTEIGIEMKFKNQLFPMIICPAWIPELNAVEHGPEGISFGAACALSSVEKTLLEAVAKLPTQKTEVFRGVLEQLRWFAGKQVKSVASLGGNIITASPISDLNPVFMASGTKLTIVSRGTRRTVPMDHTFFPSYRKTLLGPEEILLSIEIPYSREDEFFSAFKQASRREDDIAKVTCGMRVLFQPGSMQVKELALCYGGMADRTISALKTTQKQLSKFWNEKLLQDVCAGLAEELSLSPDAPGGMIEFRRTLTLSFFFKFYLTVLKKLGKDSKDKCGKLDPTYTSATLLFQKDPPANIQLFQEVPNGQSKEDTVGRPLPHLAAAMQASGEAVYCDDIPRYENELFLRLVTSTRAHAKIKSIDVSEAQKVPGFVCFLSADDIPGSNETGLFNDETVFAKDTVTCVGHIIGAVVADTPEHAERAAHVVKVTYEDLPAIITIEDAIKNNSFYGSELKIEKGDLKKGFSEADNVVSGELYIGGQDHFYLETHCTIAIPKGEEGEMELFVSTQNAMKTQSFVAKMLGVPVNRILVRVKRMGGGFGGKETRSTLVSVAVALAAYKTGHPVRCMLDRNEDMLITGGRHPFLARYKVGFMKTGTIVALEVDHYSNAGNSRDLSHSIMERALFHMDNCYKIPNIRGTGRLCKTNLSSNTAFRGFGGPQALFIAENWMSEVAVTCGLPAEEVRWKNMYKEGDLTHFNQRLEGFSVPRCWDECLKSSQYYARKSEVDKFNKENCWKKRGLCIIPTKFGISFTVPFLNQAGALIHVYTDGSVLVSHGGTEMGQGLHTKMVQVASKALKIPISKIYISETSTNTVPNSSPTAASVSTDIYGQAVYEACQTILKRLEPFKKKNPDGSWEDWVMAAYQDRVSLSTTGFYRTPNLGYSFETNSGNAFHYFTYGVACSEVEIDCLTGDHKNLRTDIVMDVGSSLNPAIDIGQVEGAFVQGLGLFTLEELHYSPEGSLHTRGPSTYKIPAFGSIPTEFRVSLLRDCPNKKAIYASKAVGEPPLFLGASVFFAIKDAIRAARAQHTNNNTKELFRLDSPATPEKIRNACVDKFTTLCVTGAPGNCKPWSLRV
Chain of CYP2D6 (P10635 whole entry): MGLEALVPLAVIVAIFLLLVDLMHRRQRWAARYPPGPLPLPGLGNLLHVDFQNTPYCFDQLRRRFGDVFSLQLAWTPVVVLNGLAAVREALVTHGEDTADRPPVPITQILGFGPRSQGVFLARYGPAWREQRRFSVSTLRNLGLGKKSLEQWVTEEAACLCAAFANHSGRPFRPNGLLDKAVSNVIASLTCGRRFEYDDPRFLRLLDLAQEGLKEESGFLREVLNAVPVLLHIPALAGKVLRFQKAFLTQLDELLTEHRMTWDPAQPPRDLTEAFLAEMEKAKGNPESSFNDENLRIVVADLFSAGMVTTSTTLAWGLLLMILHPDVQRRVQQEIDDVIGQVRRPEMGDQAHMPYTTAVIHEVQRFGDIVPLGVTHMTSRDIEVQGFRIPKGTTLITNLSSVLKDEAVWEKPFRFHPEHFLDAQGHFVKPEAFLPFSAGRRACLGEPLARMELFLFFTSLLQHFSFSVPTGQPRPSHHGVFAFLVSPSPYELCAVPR

| SMILES | fraction unbound [1] | IC50 (CYP2C8) [µM] | IC50 (CYP2C9) [µM] | IC50 (CYP3A4) [µM] | IC50 (CYP2D6) [µM] | RARα reporter activation, replicate values (DMSO ctrl = 1,000) ([2]; 3 µM) | RARα reporter activation, replicate values (DMSO ctrl = 1,000) ([2]; 10 µM) | inhibition at 10 µM (XANTHINE OXIDASE) [%] | Mean inhibition (%) [3] [%] |
| --- | --- | --- | --- | --- | --- | --- | --- | --- | --- |
| Cc1nnc(-c2ccc(OCCCOc3ccc(CCC(=O)O)c(F)c3)c(F)c2)s1 [Compound 1] | 0.0021 | > 20 | > 20 | > 20 | > 20 | 0,775 and 0,698 and 0,825 | 1,145 and 0,633 and 0,940 | -3.1 | -6.9 |
| COc1ccc(Oc2ccc3ncn(CCOc4ccc(CCC(=O)O)cc4)c3c2)cc1 [Compound 2] | 0.0042 | 1.75 | > 20 | > 20 | > 20 | 1,038 and 0,832 and 1,499 | 1,361 and 1,194 and 1,664 | 0.4 | -2.9 |
